Data published in patent US20150165756A1, “STENCILS” (DTG International GmbH, priority 2011, published 2015).
Values after ≈ are worked out from the molar mass of the structure shown.

What was measured:
Format in all cases: physicochemical
[1] = Maximal solubility in oily components (mixing, PTFE filtration, HPLC analysis); conditions: oil or lipid, thermodynamic from solid
Experimental: As pyrazolopyrimidine component, (6-Bromo-pyrazolo[1,5-a]-pyrimidine-2-yl)-(1(R)-methyl-3,4-dihydro-1H-isoquinoline-2-yl)-methanone was formulated with various oily components with higher concentrations of the drug substance using specific amounts of oily components (C). The following compositions were prepared by mixing the respective oily component (C) and the pyrazolopyrimidine compound, followed by filtration (PTFE-filter) and then analysis by High Performance Liquid Chromatography.
A liquid mixture was prepared by using 100 g of soybean oil and 100 g of MCT. The soybean oil is commercially available by Caelo (Caesar & Lorenz GmbH, Hilden, Germany). The component MCT is also commercially available (e.g. by Caelo). The solubility of compound (A) in this 50:50 (w/w) mixture of two oily components (C1) and (C2) was tested. Three different compositions were prepared (containing 1 mg/ml, 1.5 mg/ml and 2.0 mg/ml) of compound (A).

[2] = Octanol/water partition coefficient (log P)
Excerpt: The octanol/water partition coefficient (log P) of the compounds tested according to this invention can e.g. be determined by accepted standard methods, such as OECD guideline (July 1995), “Test No. 107: Partition Coefficient (n-octanol/water): Shake Flask Method”, OECD Guidelines for the Testing of Chemicals, Section 1: Physical-Chemical properties, OECD Publishing. The log P value may also be determined according to the Draft OECD guideline OECD (2000), see OECD Draft guideline for the Testing of Chemicals: 122 Partition Coefficient (n-Octanol/Water): pH-Metric Method for Ionisable Substances.
Compound (A) can be formulated together with various oily components (C) as aqueous based, liquid compositions with higher concentration of the drug substance. These formulations can be easily applied to different animal species and human beings via application routes like the parenteral route. The compound (A) is a lipophilic compound with limited wettability and solubility in aqueous media. The lipophilicity can be expressed by the log P value, which is approximately 3 for compound (A).

[3] = Stability of emulsions with soybean oil/MCT oily component (Example 3); conditions: oily component comprising soybean oil and MCT
Experimental: The oily phase containing the compound (A) was then mixed with an emulsifier (1%-3% by weight) of e.g. Lipoid S 75 Lipoid GmbH Germany, and afterwards with the aqueous phase containing a small amount (2.5% by weight) of a tonicity adjusting agent (Glycerol).
Different compositions were prepared containing about 10% to 20% of the oily component (C) and about 70 to 90% of water. These compositions were mixed by using an Ultra-Turrax-homogenizer followed by one to 10 cycles of high pressure homogenisation. These emulsions prepared are then characterized by microscopic analysis and by dynamic light-scattering methods (Horiba LB 500). Furthermore, laser diffraction experiments were made with the emulsions ([…]) and electro-acoustic experiments were performed (Dispersion Technology DT 300; Malvern Zetasizer Nano ZS).
By using the above-mentioned oily component (comprising soybean oil and MCT), it was possible to prepare stable emulsions of compound (A) containing up to 2 mg of compound (A) per ml of the emulsion. The stability of the emulsions prepared with compound (A) can be described by the Zeta-function which describes the degree of repulsion of particles having similar charges. The Zeta-potential of the emulsions were tested by acoustic and optical methods described in the literature.

[4] = Solubility of compound (A) in aqueous media; conditions: room temperature
Experimental: (6-Bromo-pyrazolo[1,5-a]pyrimidine-2-yl)-(1(R)-methyl-3,4-dihydro-1H-isoquinoline-2-yl)-methanone, and which is of particular interest and has the formula (A) as described above. This compound (A) is the R-enantiomer, but both isomers (R and S) were prepared by classical chemical synthesis. The compound (A) was tested in various compositions (formulations) inter alia for CNS-applications. The compound (A) is a small molecule having a molecular weight of about 360 g/Mol, but is very little soluble in aqueous media at room temperature (about 0.001 to 0.01 mg/ml).

solubility ([1]; 50:50 (w/w) mixture of soybean oil and MCT, read-out: maximum solubility in mixture of oily components): 8 mg/mL (≈ 21.5 mM) | solubility ([1]; 25° C., MCT, read-out: maximal solubility in MCT): 12 mg/mL (≈ 32.3 mM) | solubility ([1]; 25° C., castor oil, read-out: maximal solubility in castor oil): 47 mg/mL (≈ 127 mM) | solubility ([1]; 25° C., olive oil, read-out: maximal solubility in olive oil): 6 mg/mL (≈ 16.2 mM) | solubility ([1]; 25° C., soybean oil, read-out: maximal solubility in soybean oil): 7 mg/mL (≈ 18.9 mM) | logP [2]: ~3 | content of compound (A) in stable emulsions [3]: up to 2 mg per ml | solubility [4]: 0.001 to 0.01 mg/mL (≈ 0.00269 to 0.0269 mM)
SMILES: C[C@@H]1c2ccccc2CCN1C(=O)c1cc2ncc(Br)cn2n1 [Compound (A), (6-Bromo-pyrazolo[1,5-a]pyrimidine-2-yl)-(1(R)-methyl-3,4-dihydro-1H-isoquinoline-2-yl)-methanone]
